Source: ChEMBL document CHEMBL1201862, “PubChem BioAssay data set” (2004)
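Step 1: Grow cells in 96-well plates. Step 2: Expose to compound for 48 hours at 5 concentrations. Step 3: Interpolate endpoints linearly; if unreached, use highest concentration. GI50 marks 50% less growth.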 Calls of active or inactive are those of the source. Rule as the data show it: active = GI50 up to about 1.1 µM and inactive = higher.

Assays:
Experiment in all cases: NCI anticancer screen, dose series, 48 h
IGROV-1 = tested on: IGROV-1
SF-295 = tested on: SF-295
SF-539 = tested on: SF-539
SK-OV-3 = tested on: SK-OV-3
MDA-MB-435 = tested on: MDA-MB-435
HOP-62 = tested on: HOP-62
LOX IMVI = tested on: LOX IMVI
COLO 205 = tested on: COLO 205
U-251 = tested on: U-251
CCRF-CEM = tested on: CCRF-CEM
SW-620 = tested on: SW-620
OVCAR-5 = tested on: OVCAR-5
HCT-116 = tested on: HCT-116
OVCAR-8 = tested on: OVCAR-8
EKVX = tested on: EKVX
UACC-62 = tested on: UACC-62
BT-549 = tested on: BT-549
786-0 = tested on: 786-0
DU-145 = tested on: DU-145
NCI-H226 = tested on: NCI-H226

Measured: GI50

Clc1ccc(COC(Cn2ccnc2)c2ccc(Cl)cc2Cl)cc1 (centres undefined) [ECONAZOLE NITRATE]
inactive: IGROV-1 12.2 µM | SF-295 9.57 µM | SF-539 13.6 µM | SK-OV-3 19.7 µM | MDA-MB-435 9.68 µM | HOP-62 15.5 µM | LOX IMVI 9.57 µM | COLO 205 8.28 µM | U-251 12.6 µM | CCRF-CEM 5.87 µM | SW-620 11.3 µM | OVCAR-5 14.5 µM | HCT-116 6.67 µM | OVCAR-8 14.8 µM | EKVX 12.1 µM | UACC-62 9.86 µM | BT-549 15.2 µM | 786-0 12.6 µM | DU-145 14.4 µM

Nc1ccc(/N=N/c2c(S(=O)(=O)O)cc3ccccc3c2S(=O)(=O)O)cc1
inactive: IGROV-1 > 100 µM | SF-295 > 100 µM | MDA-MB-435 > 100 µM | HOP-62 > 100 µM | LOX IMVI > 100 µM | U-251 > 100 µM | CCRF-CEM 34.8 µM | SW-620 > 100 µM | OVCAR-5 > 100 µM | HCT-116 > 100 µM | OVCAR-8 > 100 µM | EKVX > 100 µM | UACC-62 > 100 µM | BT-549 > 100 µM | NCI-H226 > 100 µM | 786-0 > 100 µM | DU-145 > 100 µM

COC(=O)NC1C(C)OC(OC2C/C=C(/C)C3C=CC4C(OC5CC(OC6CC(OC7CC(O)C(O)C(C)O7)C(OC7CC(O)C(OC)C(C)O7)C(C)O6)C(O)C(C)O5)C(C)CC(C)C4C3(C)C(=O)C3=C(O)C4(CC(C)C(CO)=CC4/C=C\2C)OC3=O)CC1(C)[N+](=O)[O-] (centres undefined)
inactive: IGROV-1 10.4 µM | SF-295 4.6 µM | SF-539 17.8 µM | MDA-MB-435 9.64 µM | HOP-62 3.38 µM | LOX IMVI 3.23 µM | COLO 205 11.3 µM | U-251 3.84 µM | CCRF-CEM 3.29 µM | SW-620 5.24 µM | OVCAR-5 16.9 µM | HCT-116 1.59 µM | OVCAR-8 8.57 µM | EKVX 14.4 µM | UACC-62 4.14 µM | BT-549 20.8 µM | 786-0 2.44 µM | DU-145 6.73 µM

Cc1nc2c(sc(=S)n2-c2ccccc2)c2nc3ncccc3n12
inactive: IGROV-1 > 100 µM | SF-295 77.4 µM | SK-OV-3 33 µM | MDA-MB-435 > 100 µM | HOP-62 25 µM | LOX IMVI > 100 µM | COLO 205 > 100 µM | U-251 32.6 µM | CCRF-CEM > 100 µM | SW-620 > 100 µM | OVCAR-5 > 100 µM | HCT-116 > 100 µM | OVCAR-8 > 100 µM | EKVX > 100 µM | UACC-62 > 100 µM | BT-549 > 100 µM | 786-0 35.2 µM | DU-145 > 100 µM

COC(=O)CSSCc1ccc([N+](=O)[O-])cc1
inactive: IGROV-1 3.08 µM | SF-295 19 µM | SF-539 18.2 µM | SK-OV-3 20.8 µM | MDA-MB-435 13.9 µM | HOP-62 20.1 µM | LOX IMVI 12.8 µM | COLO 205 18.7 µM | U-251 12.3 µM | CCRF-CEM 5.6 µM | SW-620 12.2 µM | OVCAR-5 19.4 µM | HCT-116 12.2 µM | OVCAR-8 28.6 µM | EKVX 28.2 µM | UACC-62 15.8 µM | BT-549 19.1 µM | 786-0 19 µM | DU-145 19.5 µM

N#CCCN(C(=O)Nc1ccc(NC(=O)N(CCC#N)c2ccccc2)cc1)c1ccccc1
inactive: IGROV-1 > 100 µM | SF-295 > 100 µM | SK-OV-3 > 100 µM | MDA-MB-435 > 100 µM | HOP-62 > 100 µM | LOX IMVI > 100 µM | COLO 205 > 100 µM | U-251 > 100 µM | SW-620 > 100 µM | OVCAR-5 > 100 µM | HCT-116 > 100 µM | OVCAR-8 > 100 µM | EKVX > 100 µM | UACC-62 > 100 µM | BT-549 > 100 µM | NCI-H226 > 100 µM | 786-0 > 100 µM | DU-145 > 100 µM
